pIC50: −log10 of the molar value. Where two headings read alike, the source gives them in different places.
What was measured:
[1] = system: 4EBP1 (Thr37/46) phosphorylation (mTORC1) in MDA-MB-468 cells; experiment: Cell based AlphaLISA assay, mTOR kinase cellular assay: inhibition of p-4E-BP1 (T37/46) in MDA-MB-468 cells; details: Homo sapiens, read-out: pIC50 for Inhibition of mTORC1 and mTORC2 Substarte Phosphorylation p-4E-BP1-(T37/46) (converted)
Description: (§1) Cell Based AlphaLISA Assays for Determining IC50 For Inhibition of P-Akt (S473), P-4E-BP1 (T37/46), and P-P70S6K (T389) in MDA-MB-468 Cells
(§2) mTOR Kinase Cellular Assay
(§3) To measure functional activity of mTORC1 and mTORC2 in cells the phosphorylation of 4EBP1 (Thr37/46) and P70S6K (Thr389), and AKT1/2/3 (Ser473) was monitored using AlphaLisa SureFire Ultra Kits (Perkin Elmer). MDA-MB-468 cells (ATCC® HTB-132) were cultured in 96-well tissue culture plates and treated with compounds in the disclosure at concentrations varying from 0.017-1,000 nM for two to four hours at 37° C. Incubations were terminated by removal of the assay buffer and addition of lysis buffer provided with the assay kit. Samples were processed according to the manufacturer's instructions. The Alpha signal from the respective phosphoproteins was measured in duplicate using a microplate reader (Envision, Perkin-Elmer or Spectramax M5, Molecular Devices). Inhibitor concentration response curves were analyzed using normalized IC50 regression curve fitting with control based normalization.

[2] = system: AKT1/2/3 (Ser473) phosphorylation (mTORC2) in MDA-MB-468 cells; experiment: Cell based AlphaLISA assay, mTOR kinase cellular assay: inhibition of p-Akt (S473) in MDA-MB-468 cells; details: Homo sapiens, read-out: pIC50 for Inhibition of mTORC1 and mTORC2 Substarte Phosphorylation p-AKT1/2/3-(S473) (converted)
Description: as §1, §2, §3

[3] = system: NCI-H358 (K-Ras G12C); experiment: CellTiter-Glo cell viability assay; assay type: cell-based; details: Homo sapiens, NCI-H358, 120 h
Procedure, shortened: (§4)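 Compounds dispensed directly onto seeded AsPC-1 (K-Ras G12D) or NCI-H358 (K-Ras G12C) cells; CellTiter-Glo luminescence read on day 5 after ~30 min equilibration to room temperature. Signal normalized to DMSO average (%) and fit by four-parameter logistic.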

[4] = system: AsPC-1 (K-Ras G12D); experiment: CellTiter-Glo cell viability assay; assay type: cell-based; details: Homo sapiens, ASPC1, 120 h
Procedure, shortened: as §4

[5] = target: KRAS G12D (Homo sapiens, UniProt P01116+P62937, G12D); experiment: Ras-Raf disruption / FRET / MOA assay (BRAF RBD); assay type: biochemical; details: KRAS G12D FRET data IC50, Ras-Raf disruption, with Cyclophilin A
Procedure, shortened: (§5)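 TR-FRET in 25 mM HEPES pH 7.3, 100 mM NaCl, 5 mM MgCl2, 0.1% BSA, 0.002% Tween20 with 25 μM Cyclophilin A, 12.5 nM His6-Ras-GMPPNP, 50 nM GST-BRAF RBD; compound 10-point 3-fold series from 30 μM. After 3 h at 25 °C, Eu anti-His/APC anti-GST added for 1.5 h; IC50 from ratio decrease versus DMSO.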

[6] = target: KRAS G12S (Homo sapiens, UniProt P01116+P62937, G12S); experiment: Ras-Raf disruption / FRET / MOA assay (BRAF RBD); assay type: biochemical; details: KRAS G12S FRET data IC50, Ras-Raf disruption, with Cyclophilin A
Procedure, shortened: as §5

[7] = target: KRAS G12V (Homo sapiens, UniProt P01116+P62937, G12V); experiment: Ras-Raf disruption / FRET / MOA assay (BRAF RBD); assay type: biochemical; details: KRAS G12V FRET data IC50, Ras-Raf disruption, with Cyclophilin A
Procedure, shortened: as §5

[8] = target: KRAS G13C (Homo sapiens, UniProt P01116+P62937, G13C); experiment: Ras-Raf disruption / FRET / MOA assay (BRAF RBD); assay type: biochemical; details: KRAS G13C FRET data IC50, Ras-Raf disruption, with Cyclophilin A
Procedure, shortened: as §5

[9] = target: KRAS G13D (Homo sapiens, UniProt P01116+P62937, G13D); experiment: Ras-Raf disruption / FRET / MOA assay (BRAF RBD); assay type: biochemical; details: KRAS G13D FRET data IC50, Ras-Raf disruption, with Cyclophilin A
Procedure, shortened: as §5

[10] = target: KRAS WT (Homo sapiens, UniProt P01116+P62937); experiment: Ras-Raf disruption / FRET / MOA assay (BRAF RBD); assay type: biochemical; details: KRAS WT FRET data IC50, Ras-Raf disruption, with Cyclophilin A
Procedure, shortened: as §5

[11] = target: NRAS G12C (Homo sapiens, UniProt P01111+P62937, G12C); experiment: Ras-Raf disruption / FRET / MOA assay (BRAF RBD); assay type: biochemical; details: NRAS G12C FRET data IC50, NRAS G12C
Procedure, shortened: as §5

[12] = target: KRAS G12C (Homo sapiens, UniProt P01116+P62937, G12C); experiment: Ras-Raf disruption / FRET / MOA assay (BRAF RBD); assay type: biochemical; details: KRAS G12C FRET data IC50, Ras-Raf disruption, with Cyclophilin A
Procedure, shortened: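 His6-K-Ras G12C-GMPPNP (12.5 nM), GST-BRAF RBD (50 nM) and tagless Cyclophilin A (25 μM) incubated 3 h at 25 °C with compound (10-point 3-fold series from 30 μM), pH 7.3 HEPES buffer. Anti-His Eu/anti-GST APC added for 1.5 h; decreased TR-FRET ratio vs DMSO gives IC50.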

[13] = read-out: H358 Cell Viability assay data IC50, K-Ras G12C, 5-day treatment

Sequence of KRAS G12D (P01116 1-169 isoform P01116-2 G12D limits assumed): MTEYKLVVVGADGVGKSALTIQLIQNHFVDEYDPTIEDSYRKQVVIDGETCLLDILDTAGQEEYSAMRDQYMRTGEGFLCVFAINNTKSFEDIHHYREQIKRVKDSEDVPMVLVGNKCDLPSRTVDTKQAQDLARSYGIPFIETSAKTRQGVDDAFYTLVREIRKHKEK
Sequence of KRAS G12D (P62937 whole entry): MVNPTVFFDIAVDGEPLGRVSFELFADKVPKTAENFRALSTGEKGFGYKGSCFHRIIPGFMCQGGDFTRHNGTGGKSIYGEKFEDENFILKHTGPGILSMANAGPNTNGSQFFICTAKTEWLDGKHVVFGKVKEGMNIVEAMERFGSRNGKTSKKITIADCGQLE
Sequence of NRAS G12C (P01111 whole entry G12C): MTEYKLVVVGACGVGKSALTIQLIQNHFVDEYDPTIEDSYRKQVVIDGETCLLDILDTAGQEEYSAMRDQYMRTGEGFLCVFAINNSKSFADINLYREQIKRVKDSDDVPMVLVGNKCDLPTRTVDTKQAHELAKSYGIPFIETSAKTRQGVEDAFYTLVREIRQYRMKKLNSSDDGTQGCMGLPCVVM
Sequence of NRAS G12C (P62937 whole entry): as the sequence (P62937 whole entry) above
Sequence of KRAS WT (P01116 1-169 isoform P01116-2 limits assumed): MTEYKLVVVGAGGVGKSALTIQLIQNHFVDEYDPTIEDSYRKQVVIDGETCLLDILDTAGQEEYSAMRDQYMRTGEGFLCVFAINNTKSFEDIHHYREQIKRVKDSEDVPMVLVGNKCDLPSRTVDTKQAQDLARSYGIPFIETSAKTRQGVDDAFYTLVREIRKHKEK
Sequence of KRAS WT (P62937 whole entry): as the sequence (P62937 whole entry) above
Sequence of KRAS G12C (P01116 1-169 isoform P01116-2 G12C limits assumed): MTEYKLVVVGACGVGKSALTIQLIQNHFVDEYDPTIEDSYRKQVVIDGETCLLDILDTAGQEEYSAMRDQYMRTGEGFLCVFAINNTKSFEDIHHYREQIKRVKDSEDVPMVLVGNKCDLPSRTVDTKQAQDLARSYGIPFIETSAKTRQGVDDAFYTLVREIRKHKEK
Sequence of KRAS G12C (P62937 whole entry): as the sequence (P62937 whole entry) above
Sequence of KRAS G12V (P01116 1-169 isoform P01116-2 G12V limits assumed): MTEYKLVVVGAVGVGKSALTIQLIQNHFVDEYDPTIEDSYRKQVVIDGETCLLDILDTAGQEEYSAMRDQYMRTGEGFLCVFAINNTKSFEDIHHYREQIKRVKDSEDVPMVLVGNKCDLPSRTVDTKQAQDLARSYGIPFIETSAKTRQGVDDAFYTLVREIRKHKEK
Sequence of KRAS G12V (P62937 whole entry): as the sequence (P62937 whole entry) above
Sequence of KRAS G13D (P01116 1-169 isoform P01116-2 G13D limits assumed): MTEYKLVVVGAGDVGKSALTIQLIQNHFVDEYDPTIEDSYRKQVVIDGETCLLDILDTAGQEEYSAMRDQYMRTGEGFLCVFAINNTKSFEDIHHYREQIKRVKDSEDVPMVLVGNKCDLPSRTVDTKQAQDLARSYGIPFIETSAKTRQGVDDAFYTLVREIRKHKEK
Sequence of KRAS G13D (P62937 whole entry): as the sequence (P62937 whole entry) above
Sequence of KRAS G13C (P01116 1-169 isoform P01116-2 G13C limits assumed): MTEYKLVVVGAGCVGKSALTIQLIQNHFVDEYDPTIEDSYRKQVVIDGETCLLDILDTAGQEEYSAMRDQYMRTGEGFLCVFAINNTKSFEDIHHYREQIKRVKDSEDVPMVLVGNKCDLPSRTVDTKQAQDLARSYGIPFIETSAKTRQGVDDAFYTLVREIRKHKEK
Sequence of KRAS G13C (P62937 whole entry): as the sequence (P62937 whole entry) above
Sequence of KRAS G12S (P01116 1-169 isoform P01116-2 G12S limits assumed): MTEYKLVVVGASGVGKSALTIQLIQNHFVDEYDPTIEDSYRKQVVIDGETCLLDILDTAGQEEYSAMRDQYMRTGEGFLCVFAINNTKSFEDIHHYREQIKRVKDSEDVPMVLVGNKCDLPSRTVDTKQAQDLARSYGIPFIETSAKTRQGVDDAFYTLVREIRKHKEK
Sequence of KRAS G12S (P62937 whole entry): as the sequence (P62937 whole entry) above

SMILES	IC50 [1]	IC50 [2]	other results
CO[C@H]1C[C@@H]2CC[C@@H](C)[C@@](O)(O2)C(=O)C(=O)N2CCCC[C@H]2C(=O)O[C@H]([C@H](C)C[C@@H]2CC[C@@H](OC(=O)NCc3cnc(N4CCN(C(=O)CN(C)CC(=O)NCCOCCOCCC(=O)N5CCc6cc(Cn7nc(-c8ccc9oc(N)nc9c8)c8c(N)ncnc87)ccc6C5)CC4)nc3)[C@H](OC)C2)C[C@@H](OC)[C@H](C)/C=C(\C)[C@@H](O)[C@@H](OC)C(=O)[C@H](C)C[C@H](C)/C=C/C=C/C=C/1C [Example 103]	> 1000 nM	> 1000 nM	–
CO[C@H]1C[C@@H]2CC[C@@H](C)[C@@](O)(O2)C(=O)C(=O)N2CCCC[C@H]2C(=O)O[C@H]([C@H](C)C[C@@H]2CC[C@@H](OC(=O)NCc3cnc(N4CCN(C(=O)CCOCCN5CCN(c6ncc(C(=O)N7CCc8cc(Cn9nc(-c%10cnc%11[nH]ccc%11c%10)c%10c(N)ncnc%109)ccc8C7)cn6)CC5)[C@@H](C(=O)O)C4)nc3)[C@H](OC)C2)CC(=O)[C@H](C)/C=C(\C)[C@@H](O)[C@@H](OC)C(=O)[C@H](C)C[C@H](C)/C=C/C=C/C=C/1C [Example 132]	≤ 3.16 nM	3.16 to 31.6 nM	–
CO[C@H]1C[C@@H]2CC[C@@H](C)[C@@](O)(O2)C(=O)C(=O)N2CCCC[C@H]2C(=O)O[C@H]([C@H](C)C[C@@H]2CC[C@@H](OC(=O)NCc3cnc(N4CCN(c5ncc(C(=O)NCCOCCOCCOCCOCCC(=O)N6CCc7cc(Cn8nc(-c9ccc%10oc(N)nc%10c9)c9c(N)ncnc98)ccc7C6)c(N)n5)CC4)nc3)[C@H](OC)C2)C[C@@H](OC)[C@H](C)/C=C(\C)[C@@H](O)[C@@H](OC)C(=O)[C@H](C)C[C@H](C)/C=C/C=C/C=C/1C [Example 106]	3.16 to 31.6 nM	> 1000 nM	–
CO[C@H]1C[C@@H]2CC[C@@H](C)[C@@](O)(O2)C(=O)C(=O)N2CCCC[C@H]2C(=O)O[C@H]([C@H](C)C[C@@H]2CC[C@@H](OC(=O)NCc3cnc(N4CCN(C(=O)CCOCCN5CCN(c6ncc(C(=O)NCCCCn7nc(-c8ccc9oc(N)nc9c8)c8c(N)ncnc87)cn6)CC5)CC4)nc3)[C@H](OC)C2)CC(=O)[C@H](C)/C=C(\C)[C@@H](O)[C@@H](OC)C(=O)[C@H](C)C[C@H](C)/C=C/C=C/C=C/1C [Example 54]	≤ 3.16 nM	≤ 3.16 nM	–
CCn1c(-c2cccnc2COC)c2c3cc(ccc31)-c1cc(O)cc(c1)C[C@H](NC(=O)[C@H](C(C)C)N(C)C(=O)CCNC(=O)NCCCl)C(=O)N1CCC[C@H](N1)C(=O)OCC(C)(C)C2 [Example 25]	–	–	pIC50 [3, 13]: < 5.00
CCn1c(-c2cccnc2[C@H](C)OC)c2c3cc(ccc31)-c1cc(O)cc(c1)C[C@H](NC(=O)[C@H](C(C)C)N(C)C(=O)[C@@]1(C)CCCN1C(=O)[C@@H]1CN1)C(=O)N1CCC[C@H](N1)C(=O)OCC(C)(C)C2 [Example 241]	–	–	pIC50 ([4]; K-Ras G12D, 5-day treatment, read-out: AsPC-1 Cell Viability assay data IC50): 6.00 to 7.00; pIC50 ([3]; K-Ras G12C, 5-day treatment, read-out: H358 Cell Viability assay data IC50): > 8.00
CCn1c(-c2cccnc2[C@H](C)OC)c2c3cc(ccc31)-c1cc(O)cc(c1)C[C@H](NC(=O)[C@H](C(C)C)N(C)C(=O)CN(C)C(=O)[C@H]1CN1CCOC)C(=O)N1CCC[C@H](N1)C(=O)OCC(C)(C)C2 (some centres unmarked) [Example 159]	–	–	pIC50 ([4]; read-out: AsPC-1 Cell Viability assay data IC50, K-Ras G12D, 5-day treatment): 6.00 to 7.00; pIC50 [3, 13]: > 8.00; pIC50 [5]: 6.00 to 7.00; pIC50 [6]: 7.00 to 8.00; pIC50 [7]: 7.00 to 8.00; pIC50 [8]: 7.00 to 8.00; pIC50 [9]: 6.00 to 7.00; pIC50 [10]: 7.00 to 8.00; pIC50 [11]: > 8.00; pIC50 [12]: 7.00 to 8.00
CO[C@H]1C[C@@H]2CC[C@@H](C)[C@@](O)(O2)C(=O)C(=O)N2CCCC[C@H]2C(=O)O[C@H]([C@H](C)C[C@@H]2CC[C@@H](OC(=O)NCCOCCOCCOCCOCCOCCOCCOCCOCCC(=O)NCc3ccc(Cn4nc(-c5ccc6oc(N)nc6c5)c5c(N)ncnc54)cc3)[C@H](OC)C2)C[C@H](N=[N+]=[N-])[C@H](C)/C=C(\C)[C@@H](O)[C@@H](OC)C(=O)[C@H](C)C[C@H](C)/C=C/C=C/C=C/1C [Example 82]	≤ 3.16 nM	–	–
CO[C@H]1C[C@@H]2CC[C@@H](C)[C@@](O)(O2)C(=O)C(=O)N2CCCC[C@H]2C(=O)O[C@H]([C@H](C)C[C@@H]2CC[C@@H](OC(=O)NCc3cnc(N4CCN(c5ncc(C(=O)N(C)CCOCCOCCOCCOCCC(=O)N6CCc7cc(Cn8nc(-c9ccc%10oc(N)nc%10c9)c9c(N)ncnc98)ccc7C6)c(N)n5)CC4)nc3)[C@H](OC)C2)C[C@@H](OC)[C@H](C)/C=C(\C)[C@@H](O)[C@@H](OC)C(=O)[C@H](C)C[C@H](C)/C=C/C=C/C=C/1C [Example 107]	> 1000 nM	> 1000 nM	–
CO[C@H]1C[C@@H]2CC[C@@H](C)[C@@](O)(O2)C(=O)C(=O)N2CCCC[C@H]2C(=O)O[C@H]([C@H](C)C[C@@H]2CC[C@@H](O)[C@H](OC)C2)CC(=O)[C@H](C)/C=C(\C)[C@@H](OC(=O)NCc2cnc(N3CCN(C(=O)CCOCCN4CCN(c5ncc(C(=O)N6CCc7cc(Cn8nc(-c9ccc%10oc(N)nc%10c9)c9c(N)ncnc98)ccc7C6)cn5)CC4)CC3)nc2)[C@@H](OC)C(=O)[C@H](C)C[C@H](C)/C=C/C=C/C=C/1C [Example 133]	≤ 3.16 nM	–	–
CO[C@H]1C[C@@H]2CC[C@@H](C)[C@@](O)(O2)C(=O)C(=O)N2CCCC[C@H]2C(=O)O[C@H]([C@H](C)C[C@@H]2CC[C@@H](OC(=O)NCc3cnc(N4CCN(c5ncc(C(=O)N6CCN(c7ncc(C(=O)N8CCc9cc(Cn%10nc(-c%11ccc%12oc(N)nc%12c%11)c%11c(N)ncnc%11%10)ccc9C8)cn7)CC6)cn5)CC4)nc3)[C@H](OC)C2)CC(=O)[C@H](C)/C=C(\C)[C@@H](O)[C@@H](OC)C(=O)[C@H](C)C[C@H](C)/C=C/C=C/C=C/1C [Example 60]	3.16 to 31.6 nM	–	–
